Where a name gives a salt, the structure may show the parent alone. Read-outs that look alike come from different tables or passages of the source.
Tests used:
Experiment in all cases: MIC, two-fold agar dilution, Mueller-Hinton agar
Type in all cases: cell-based
[1] = tested on: Enterobacter aerogenes 13048; conditions: read-out: minimum inhibitory concentration (MIC)
Description: (§1) The in vitro antibiotic activity is determined by a two-fold dilution test using Mueller-Hinton agar, 10 ml per Petri plate. The inoculum of approximately 1×10^5 of the indicated test organism is delivered by the Steer's replicator. The test is incubated at 37° C. for 24 hours.

[2] = tested on: Escherichia coli 76-2; conditions: read-out: minimum inhibitory concentration (MIC)
Description: as §1

[3] = tested on: Escherichia coli BL 3676(RES); conditions: read-out: minimum inhibitory concentration (MIC)
Description: as §1

[4] = tested on: Escherichia coli JUHL; conditions: read-out: minimum inhibitory concentration (MIC)
Description: as §1

[5] = tested on: Klebsiella pneumoniae 10031; conditions: read-out: minimum inhibitory concentration (MIC)
Description: as §1

[6] = tested on: Klebsiella pneumoniae KY 4262; conditions: read-out: minimum inhibitory concentration (MIC)
Description: as §1

[7] = tested on: Proteus mirabilis Fin #9; conditions: read-out: minimum inhibitory concentration (MIC)
Description: as §1

[8] = tested on: Proteus rettgeri U-6333; conditions: Providencia rettgeri, read-out: minimum inhibitory concentration (MIC)
Description: as §1

[9] = tested on: Proteus vulgaris JJ; conditions: read-out: minimum inhibitory concentration (MIC)
Description: as §1

[10] = tested on: Providencia stuartii 1577; conditions: read-out: minimum inhibitory concentration (MIC)
Description: as §1

[11] = tested on: Pseudomonas aeruginosa 209; conditions: read-out: minimum inhibitory concentration (MIC)
Description: as §1

[12] = tested on: Pseudomonas aeruginosa 27853; conditions: read-out: minimum inhibitory concentration (MIC)
Description: as §1

[13] = tested on: Pseudomonas aeruginosa BMH #10; conditions: read-out: minimum inhibitory concentration (MIC)
Description: as §1

[14] = tested on: Pseudomonas aeruginosa KY 8512; conditions: read-out: minimum inhibitory concentration (MIC)
Description: as §1

[15] = tested on: Pseudomonas aeruginosa KY 8516; conditions: read-out: minimum inhibitory concentration (MIC)
Description: as §1

[16] = tested on: Salmonella typhimurium Ed. #9; conditions: Salmonella enterica, read-out: minimum inhibitory concentration (MIC)
Description: as §1

[17] = tested on: Serratia marcescens 4003; conditions: read-out: minimum inhibitory concentration (MIC)
Description: as §1

[18] = tested on: Shigella sonnei 9290; conditions: 37° C., 24 hours, read-out: minimum inhibitory concentration (MIC)
Description: as §1

[19] = tested on: Staphylococcus aureus Smith; conditions: read-out: minimum inhibitory concentration (MIC)
Description: as §1

[20] = tested on: Streptococcus faecalis 10541; conditions: read-out: minimum inhibitory concentration (MIC)
Description: as §1

SMILES: CO[C@H]1[C@@H](O)[C@@H](N)[C@@H](O[C@H]2O[C@H]([C@H](C)N)CC[C@H]2N)[C@H](O)[C@@H]1N(C)C(=O)CN [Ex. 3, 1-Epi-fortimicin A tetrahydrochloride]
- MIC ([1]; Klebsiella aerogenes, 13048, 24 h): 6.2 µg/mL
- MIC ([2]; Escherichia coli, 762, 24 h): 6.2 µg/mL
- MIC ([3]; Escherichia coli, 24 h): 50 µg/mL
- MIC ([4]; Escherichia coli, 24 h): 12.5 µg/mL
- MIC ([5]; Klebsiella pneumoniae, 10031, 24 h): 3.1 µg/mL
- MIC ([6]; Klebsiella pneumoniae, KY4262, 24 h): 6.2 µg/mL
- MIC ([7]; Proteus mirabilis, 24 h): 12.5 µg/mL
- MIC ([8]; U6333, 24 h): 3.1 µg/mL
- MIC ([9]; Proteus vulgaris, 24 h): 12.5 µg/mL
- MIC ([10]; Providencia stuartii, 1577, 24 h): 3.1 µg/mL
- MIC ([11]; Pseudomonas aeruginosa, 209, 24 h): 100 µg/mL
- MIC ([12]; Pseudomonas aeruginosa, 27853, 24 h): 50 µg/mL
- MIC ([13]; Pseudomonas aeruginosa, 24 h): 0.78 µg/mL
- MIC ([14]; Pseudomonas aeruginosa, KY8512, 24 h): 25 µg/mL
- MIC ([15]; Pseudomonas aeruginosa, KY8516, 24 h): 100 µg/mL
- MIC ([16]; TYPHIMURIUM, 24 h): 3.1 µg/mL
- MIC ([17]; Serratia marcescens, 4003, 24 h): 3.1 µg/mL
- MIC [18]: 12.5 µg/mL
- MIC ([19]; Staphylococcus aureus, 24 h): 1.56 µg/mL
- MIC ([20]; Enterococcus faecalis, 10541, 24 h): 100 µg/mL

SMILES: C[C@H](N)[C@@H]1CC[C@@H](N)[C@@H](O[C@@H]2[C@H](N)[C@H](O)[C@H](O)[C@@H](N(C)C(=O)CN)[C@H]2O)O1 [Ex. 13, 1-Epi-3-O-demethylfortimicin A tetrahydrochloride]
- MIC ([1]; Klebsiella aerogenes, Enterobacter aerogenes 13048, 37° C., 24 hours): 3.1 µg/mL
- MIC ([2]; 762, Escherichia coli 76-2, 37° C., 24 hours): 3.1 µg/mL
- MIC ([3]; Escherichia coli BL 3676(RES), 37° C., 24 hours): 25 µg/mL
- MIC ([4]; Escherichia coli JUHL, 37° C., 24 hours): 6.2 µg/mL
- MIC ([5]; Klebsiella pneumoniae 10031, 37° C., 24 hours): 3.1 µg/mL
- MIC ([6]; KY4262, Klebsiella pneumoniae KY 4262, 37° C., 24 hours): 6.2 µg/mL
- MIC ([7]; Proteus mirabilis Fin #9, 37° C., 24 hours): 6.2 µg/mL
- MIC ([8]; U6333, Proteus rettgeri U-6333, 37° C., 24 hours): 3.1 µg/mL
- MIC ([9]; Proteus vulgaris JJ, 37° C., 24 hours): 3.1 µg/mL
- MIC ([10]; Providencia stuartii 1577, 37° C., 24 hours): 6.2 µg/mL
- MIC ([11]; Pseudomonas aeruginosa 209, 37° C., 24 hours): 100 µg/mL
- MIC ([12]; Pseudomonas aeruginosa 27853, 37° C., 24 hours): 6.2 µg/mL
- MIC ([13]; Pseudomonas aeruginosa BMH #10, 37° C., 24 hours): 0.78 µg/mL
- MIC ([14]; KY8512, Pseudomonas aeruginosa KY 8512, 37° C., 24 hours): 6.2 µg/mL
- MIC ([15]; KY8516, Pseudomonas aeruginosa KY 8516, 37° C., 24 hours): 25 µg/mL
- MIC ([16]; Salmonella typhimurium Ed. #9, 37° C., 24 hours): 3.1 µg/mL
- MIC ([17]; Serratia marcescens 4003, 37° C., 24 hours): 3.1 µg/mL
- MIC [18]: 12.5 µg/mL
- MIC ([19]; Staphylococcus aureus Smith, 37° C., 24 hours): 0.78 µg/mL
- MIC ([20]; Enterococcus faecalis, Streptococcus faecalis 10541, 37° C., 24 hours): 50 µg/mL

Source: patent publication US4218442A, “1-Epi-fortimicin A and derivatives” (Abbott Laboratories, priority 1979, dated 1980)
